Tests used:
Format in all cases: physicochemical
[1] = Stability study with improved packing (inert atmosphere), 25° C. and 60% relative humidity; details: 25° C./60% RH
Source text: (§1) Ziprasidone hydrochloride prepared by the present invention can be packed with a specific process to prevent from hydrating or to improve stability during the storage or transporting of ziprasidone hydrochloride products. This can be achieved by storing the active substance in inert atmosphere, which is technologically and economically simple. The active substance Ziprasidone HCl is stored in polythene bag or containers. The inert atmosphere may be made by nitrogen or argon or mixture thereof. Silica gel or desiccant in air permeable bag may be used optionally along with inert gas in the polythene bag or container.
(§2) Stability study with improved packing (inert atmosphere):
The stability studies were also carried out at 25° C. and 60% relative humidity condition.

[2] = Stability study with improved packing (inert atmosphere), 40° C. and 75% relative humidity; details: 40° C./75% RH
Source text: as §1, §2
Initial and up to two-month stability profile for the hygroscopic active substance Ziprasidone HCl is shown below:
The stability studies were carried out at 40° C. and 75% relative humidity condition.

[3] = Crystal size distribution / mean particle size D[4,3] (Malvern)
Experimental: Ziprasidone hydrochloride (3 Kg) in formic acid (4.5 L) was heated to 60-65° C. for clear dissolution. The solution was filtered to remove any solid particles and the filtrate was cooled to 50-55° C. Ziprasidone hydrochloride (7.5 gm) as seed compound was added to the cooled filtrate. After stirred for 2 hr at 50-55° C., the resulting solution was cooled slowly to 25-35° C. over 1 to 1.5 hour. Ethyl acetate (13.5 L) was added slowly at 25-35° C. over 2 hrs. The resulting mass was stirred for 30-45 min at 25-35° C. The compound was filtered under nitrogen atmosphere. The filtered wet compound was added to acetic acid (10 L) at 25-35° C. under nitrogen atmosphere, and the resulting mixture was stirred for 30-45 min at 25-35° C. The compound was filtered under nitrogen atmosphere, washed with ethyl acetate (10 L), and then dried the compound at 60° C. under reduced pressure for 3-4 hrs and then at 110-120° C. to get the Ziprasidone hydrochloride (2.2 Kg). The product purity by HPLC was analyzed as 99.8%. The crystal size distribution as measured by Malvern was: D10<18.75 micron, D50=114.82 micron, […] and the mean particle size or D[4,3]=123.8 micron.

[4] = Stability study with normal packing (without inert atmosphere), 40° C. and 75% relative humidity; details: 40° C./75% RH
Experimental: Stability study with normal packing (without inert atmosphere): Initial and up to two-month stability profile with normal packing was carried out at 40° C. and 75% relative humidity conditions as follow: […]

[5] = X-ray powder diffractogram of initial and two-month stability samples; details: Cu K alpha-1 radiation
Experimental: X-Ray diffractograms of active substance Ziprasidone HCl (Initial and after two month sample) were recorded on Bruker Axe, DS Advance Powder X-ray Diffractometer with Cu K alpha-1 Radiation source. The characteristic X-ray diffractogram of Ziprasidone hydrochloride was found similar.

[6] = Example 15, crystal size distribution by Malvern

Cl.O=C1Cc2cc(CCN3CCN(c4nsc5ccccc45)CC3)c(Cl)cc2N1 [Ziprasidone hydrochloride, 5-(2-(4-(1,2-benzisothiazol-3-yl)-1-piperazinyl)ethyl)-6-chloro-1,3-dihydro-2H-indol-2-one hydrochloride]
Assay ([1]; Initial): 99.4% w/w
Moisture content ([1]; Initial): 0.54% w/w
Total Impurity ([1]; Initial): 0.19% w/w
Assay ([1]; One month): 99.2% w/w
Moisture content ([1]; One month): 0.38% w/w
Total Impurity ([1]; One month): 0.18% w/w
Assay ([1]; Two month): 99.3% w/w
Moisture content ([1]; Two month): 0.48% w/w
Total Impurity ([1]; Two month): 0.21% w/w
Assay ([2]; Initial): 99.4% w/w
Moisture content ([2]; Initial): 0.54% w/w
Total Impurity ([2]; Initial): 0.19% w/w
Assay ([2]; One month): 99.4% w/w
Moisture content ([2]; One month): 0.41% w/w
Total Impurity ([2]; One month): 0.19% w/w
Assay ([2]; Two month): 99.7% w/w
Moisture content ([2]; Two month): 0.54% w/w
Total Impurity ([2]; Two month): 0.20% w/w
mean particle size or D[4,3] ([3]; Example 12: reactive crystallization from base in formic acid with HCl in ethyl acetate): 94.1 micron
mean particle size or D[4,3] ([3]; Example 13: formic acid solvent, ethyl acetate anti-solvent, 30° C.): 101.1 micron
mean particle size or D[4,3] ([3]; Example 14: seeded cooling crystallization from formic acid): 264.5 micron
D10 [3, 6]: < 18.75 micron
D50 [3, 6]: 114.82 micron
D60 [3, 6]: < 236.5 micron
mean particle size or D[4,3] ([3]; Example 15: seeded, formic acid / ethyl acetate anti-solvent, acetic acid slurry): 123.8 micron
mean particle size or D[4,3] ([3]; Example 16: reverse addition of formic acid solution into hot seeded ethyl acetate, 1.5 Kg): 156.2 micron
D[4,3] ([3]; Example 17: reverse addition of formic acid solution into hot seeded ethyl acetate, 20 Kg): 132.2 micron
Moisture content ([4]; Initial): 0.25% w/w
Moisture content ([4]; One month): 3.45% w/w
Moisture content ([4]; Two month): 4.83% w/w
X-ray diffractogram, initial versus after two month sample [5]: similar

From patent US20050049295A1, “Process for the preparation of 5-(2-(4-(1,2-benzisothiazol-3-yl)-1piperazinyl) ethyl)-6-chloro-1, 3-dihydro-2h-indol-2-one hydrochloride (ziprasidone hydrochloride) and its intermediate” (DR. REDDY'S LABORATORIES LIMITED, priority 2003, published 2005)
